Measured values as given in patent publication US10668020B1, “Pullulan based vinpocetine tablets, lyoplant-tabs, as a buccal solid dosage form” (King Abdulaziz University, priority 2019, dated 2020).
≈ marks a conversion by molar mass, not a printed value.

What was measured:
[1] = Equilibrium saturation solubility and solubilization efficiency; assay type: physicochemical; conditions: distilled water, thermodynamic from solid; pure drug, water at 25° C.; read-out: solubility of VPN in water
Protocol: To study the effects of the prepared solid dispersions on the solubility of VPN, the equilibrium solubility was determined as previously reported. (Ahmed et al. Pharm Dev Technol. 2011; 16 (5):497-510). An excess amount of either pure drug or the prepared solid dispersions were added to screw-capped vials containing 10 mL of distilled water. The vials were placed in a thermostatically controlled shaking water bath (Model 1031; GFL Corporation. Burgwedel, Germany) at 25±0.5° C. for 48 h. […] Aliquots withdrawn were filtered through a 0.22 μm pore-size Millipore filter and assayed for drug content using high performance liquid chromatography (HPLC) method Ding et al. Asian J Pharm Sci. 2015; 10:114-120. doi:10.1016/j.ajps.2014.08.008), with slight modifications. An isocratic HPLC method was performed using Agilent 1200 series equipped with UV diode array detector. A reversed phase C18 analytical column (4×250 mm, 5 μm; Thermo Fischer Scientific) was used. The mobile phase was composed of a mixture of methanol and 0.05 ammonium acetate buffer of pH 5.5, 80:20 (v/v). The flow rate of the mobile phase was 1 mL/min, the injection volume was 20 μL and the detection wave length was 273 nm. […]
The solubility of vinpocetine, in the prepared solid dispersions, was compared to the intrinsic drug solubility and the resulting ratios of solubilization efficiency (solubility enhancement) were calculated. […]

[2] = Phase solubility study and thermodynamic parameter of solubility in aqueous PVP-VA64 solution; assay type: physicochemical
Protocol: An excess amount of pure VPN was added separately into screw-capped vials containing 10 mL of aqueous polyvinyl pyrrolidone vinyl acetate (PVP-VA64) solution (0-10% w/v). The vials were sealed and shaken in a water bath at 37° C. for 72 h. Aliquots (n=3) from each vial were filtered through a 0.22 μm pore-size Millipore filter, and the filtrates were assayed by HPLC. The change in the solubility of VPN resulting from the addition of different PVP-VA-64 concentrations was used to construct a phase-solubility plot and to evaluate the stoichiometry and the stability constant of complexation (Kst), which exemplifies the strength of the interaction and stability of the complex formed.
Calculation of the apparent stability constant, Kst, was achieved from the phase solubility diagram according to the equation described by Higuchi and Connors (Adv Anal Chem Instrum. 1965; 4:117-210), based on the assumption that 1:1 complex was initially formed.
[formula] In the equation, “So” represents the drug solubility in the absence of the studied polymer (the intercept of the phase solubility diagram constructed).
To evaluate the solubilizing efficiency of the studied polymer for the drug, the complexation efficiency (CE) was determined. It was calculated according to the following equation: CE=So K1:1=slope/(1-slope).
The Gibbs free energy (ΔG°tr) for the transfer of VPN from pure water to aqueous solutions of PVP-VA-64 was calculated using the following equation: ΔG°tr=−2.303 RT Log (Sc/So) where Sc/So is the ratio of the molar drug solubility in an aqueous solution of PVP-VA-64 to that of pure water. R is the gas rate constant ([…]) and T is the temperature in Kelvin at which the study was conducted. The Gibbs free energy can also be referred to as the thermodynamic potential that is minimized when a system reaches chemical equilibrium from an initial state to a final state at constant pressure and temperature. Dissolution of the Prepared Solid Dispersion

[3] = In vitro dissolution of the prepared solid dispersion (USP apparatus II); assay type: physicochemical; conditions: simulated intestinal fluid pH 6.8, 37° C.
Protocol: An in vitro dissolution study of the pure drug and the vinpocetin-PVP-VA64 inclusion complex (equivalent to 5 mg VPN) was performed in triplicate, using the United States Pharmacopeia (USP) dissolution test apparatus II paddle type, DT 700 LH device, Erweka GmbH DT 700 (Heusenstamm, Germany) at 37° C. for 2 h, with a stirring rate of 50 rpm, in 900 mL of enzyme-free simulated intestinal fluid (pH 6.8). Aliquots were collected at 5, 10, 15, 20, 25, 30, 45, 60, 90 and 120 min, with immediate replacement of an equal volume of fluid, and the collected samples were filtered through a 0.22 μm pore-size Millipore filter and assayed for drug content using high performance liquid chromatography (HPLC). From the dissolution profile curve constructed, DP5min, DP30min and DP120min, the percent of drug dissolved within 5, 30 and 120 minutes, respectively, were estimated. Also, the dissolution efficiency within 10 and 120 minutes, (DE10min) and (DE120min), respectively and, the mean dissolution time were calculated. For each formulation, the dissolution efficiency was determined as the percent ratio of area under the dissolution profile curve up to the time, t, to that of the area of the rectangle described by 100% dissolution at the same time.

[4] = weak basic drug; cited from earlier work
[5] = background statement; cited from earlier work

solubility at 48 h [1]: 2.31 µg/mL (≈ 6.59 µM) | ΔG°tr ([2]; 1% polymeric solution (PVP-VA-64)): -1.144722 kcal/mol | ΔG°tr ([2]; 2% polymeric solution (PVP-VA-64)): -1.513035 kcal/mol | ΔG°tr ([2]; 3% polymeric solution (PVP-VA-64)): -1.766491 kcal/mol | ΔG°tr ([2]; 4% polymeric solution (PVP-VA-64)): -2.010924 kcal/mol | ΔG°tr ([2]; 5% polymeric solution (PVP-VA-64)): -2.097426 kcal/mol | ΔG°tr ([2]; 6% polymeric solution (PVP-VA-64)): -2.189169 kcal/mol | ΔG°tr ([2]; 7% polymeric solution (PVP-VA-64)): -2.315229 kcal/mol | ΔG°tr ([2]; 8% polymeric solution (PVP-VA-64)): -2.413399 kcal/mol | ΔG°tr ([2]; 9% polymeric solution (PVP-VA-64)): -2.456587 kcal/mol | ΔG°tr ([2]; 10% polymeric solution (PVP-VA-64)): -2.547512 kcal/mol | type of complexation (phase solubility profile) ([2]; VPN with PVP-VA-64): AP-type complexation | complexation efficiency CE ([2]; VPN with PVP-VA-64, 37° C.): 0.0014 | stability constant Kst ([2]; VPN with PVP-VA-64, 37° C., 1:1 complex assumed): 7 mL/mg | DE120, dissolution efficiency within 120 minutes [3]: 18.67±3.73% | DE10min, dissolution efficiency within 10 minutes [3]: 0.428±0.159% | DP5min, percent of drug dissolved within 5 minutes ([3]; 50 rpm): 5.62±2.45% | DP30min, percent of drug dissolved within 30 minutes ([3]; 50 rpm): 16.46±3.58% | DP120min, percent of drug dissolved within 120 minutes ([3]; 50 rpm): 22.41±6.04%
Compound: CCOC(=O)C1=C[C@]2(CC)CCCN3CCc4c(n1c1ccccc41)[C@@H]32 [Vinpocetine]
pKa [4]: 7.31 | elimination half-life [5]: 1 to 2 h | first pass metabolism (metabolism in liver) [5]: 75%
